Reference: article PMC10214512 (2023)

How the values were obtained:
[1] = tested on: Cy5 NRAS 5'UTR G4 (RNA, G4) UGUGGGAGGGGCGGGUCUGGGUGC; assay: fluorescence quenching (Cy5); settings: 100 mM KCl, 10 mM MgCl2
[2] = tested on: Cy5 NRAS 5'UTR G4 (RNA, G4) UGUGGGAGGGGCGGGUCUGGGUGC; assay: MST thermophoresis; settings: 100 mM KCl, 10 mM MgCl2; binding only at millimolar concentrations, KD not established; label of G4 construct not stated for this assay
[3] = 20 mM HEPES pH 7.4, 25 °C, group value close to 200 nM

SMILES | KD [1, 3] | other results
NCCOc1cc(NC(=O)c2cc(OCc3cn(CCOCCOCCOCCOCCOCCn4ccnc4)nn3)cc(C(=O)Nc3cc(OCCN)c4ccccc4n3)n2)nc2ccccc12 | 137 nM | 
NCCOc1cc(NC(=O)c2cc(OCc3cn(CCC(=O)O)nn3)cc(C(=O)Nc3cc(OCCN)c4ccccc4n3)n2)nc2ccccc12 | 191 nM | 
[N-]=[N+]=NCCOCCOCCOCCOCCOCCn1ccnc1 |  | binding [2]: weak
NCCOc1cc(NC(=O)c2cc(OCc3cn(CCOCCOCCOCCn4ccnc4)nn3)cc(C(=O)Nc3cc(OCCN)c4ccccc4n3)n2)nc2ccccc12 | 211 nM | 
NCCOc1cc(C(=O)Nc2cc(OCCN)c3ccccc3n2)nc(C(=O)Nc2cc(OCCN)c3ccccc3n2)c1 |  | KD ([1]; 20 mM HEPES pH 7.4, 25 °C read after 30 min at 4 °C, 50 nM RNA): 26 nM
